Reference: patent US10988774B2, “System for site-specific modification of ALS gene using CRISPR-Cas9 system for production of herbicide-resistant rice and use of same” (Institute of Crop Sciences, Chinese Academy of Agricultural …, priority 2015, dated 2021)

Columns and labels:
wild-type rice = assay: Resistance to herbicide Bispyribac-sodium, spray test, wild-type rice; type: in vivo, Nipponbare rice; details: spray 100 μM, 36 days after spraying
Method: (§1) The wild-type rice, and the T0 site-specifically modified rice of the Cas9-arm donor group with successful homologous recombination at the codons of both the 548th and 627th amino acids of ALS as obtained in step I were sprayed with Bispyribac-sodium in a concentration of 100 μM, and 30-50 days thereafter, the growth states of the plants were observed.

[1] = test system: T0 site-specifically modified rice of the Cas9-arm donor group (ALS W548L, S627I); assay: Resistance to herbicide Bispyribac-sodium, spray test, ALS site-specifically modified rice; type: in vivo, Nipponbare rice; details: homologous recombinant rice, ALS W548L and S627I; spray 100 μM; 36 days after spraying
Method: as §1

COc1cc(OC)nc(Oc2cccc(Oc3nc(OC)cc(OC)n3)c2C(=O)O)n1 [Bispyribac-sodium]
growth state of the plants after spraying (wild-type rice): withered
growth state of the plants after spraying [1]: normal growth
